Laboratory results published in publication PMC9270327 (Communications Biology, 2022).
Counter-ions that a name gives are not always drawn. Like-named read-outs stand apart in the source and are kept apart here.

How the values were obtained:
Caco-2 cells = settings: Fig. 6e
TMPRSS2 = TMPRSS2 (Homo sapiens, UniProt O15393)
Experimental: Negative ctrl: no inhibitor, positive ctrl: inhibitor in assay buffer. d Inhibitory constants Ki as determined from (a–c). Shown are the means ± SD of n = 1 experiment performed in triplicates. No inh. no inhibition.
The activity of the compounds against the recombinant human enzymes was determined in enzyme inhibition assays. […] The measurements were performed on a Tecan infinite® M1000 and the fluorescence intensity was measured by exciting the AMC fluorophore at 380 nm wavelength and recording emission at 460 nm wavelength. […] Fluorescence intensities and absorption were measured every 2 min for 2 h or as endpoint after 2 h. […] To determine the IC50 values, the concentration-response data were plotted with the program GraphPad prism version 8.4.2 (San Diego, California) and a nonlinear regression fit with the equation [Inhibitor] vs. normalized response was applied. The inhibitory constant Ki was calculated from the IC50 values using the Cheng–Prusoff equation (Ki = IC50/[S]/KM) for competitive reversible inhibitors[66].
The stability of the inhibitors was measured according to a modified procedure from ref. [67]. […] At indicated timepoints, 100 µL samples were taken and mixed with 200 µL of ethanol to precipitate proteins. […] The supernatant was aspirated and analyzed using analytical HPLC. The residual inhibitory constants Ki after incubation was assessed by mixing serial dilutions of the inhibitor with recombinant TMPRSS2 as described above.

[1] = inhibitor 0.0167 nM, 0 min in serum
[2] = inhibitor 0.0167 nM, 30 min in serum
[3] = inhibitor 0.0167 nM, 60 min in serum
[4] = inhibitor 0.0167 nM, 120 min in serum
[5] = inhibitor 0.0167 nM, 24 h in serum
[6] = inhibitor 0.0167 nM, 10 d in serum
[7] = inhibitor 0.0167 nM, positive ctrl
[8] = inhibitor 0.167 nM, 0 min in serum
[9] = inhibitor 0.167 nM, 30 min in serum
[10] = inhibitor 0.167 nM, 60 min in serum
[11] = inhibitor 0.167 nM, 120 min in serum
[12] = inhibitor 0.167 nM, 24 h in serum
[13] = inhibitor 0.167 nM, 10 d in serum
[14] = inhibitor 0.167 nM, positive ctrl
[15] = inhibitor 1.665 nM, 0 min in serum
[16] = inhibitor 1.665 nM, 30 min in serum
[17] = inhibitor 1.665 nM, 60 min in serum
[18] = inhibitor 1.665 nM, 120 min in serum
[19] = inhibitor 1.665 nM, 24 h in serum
[20] = inhibitor 1.665 nM, 10 d in serum
[21] = inhibitor 1.665 nM, positive ctrl
[22] = inhibitor 16.65 nM, 0 min in serum
[23] = inhibitor 16.65 nM, 30 min in serum
[24] = inhibitor 16.65 nM, 60 min in serum
[25] = inhibitor 16.65 nM, 120 min in serum
[26] = inhibitor 16.65 nM, 24 h in serum
[27] = inhibitor 16.65 nM, 10 d in serum
[28] = inhibitor 16.65 nM, positive ctrl
[29] = inhibitor 166.5 nM, 0 min in serum
[30] = inhibitor 166.5 nM, 30 min in serum
[31] = inhibitor 166.5 nM, 60 min in serum
[32] = inhibitor 166.5 nM, 120 min in serum
[33] = inhibitor 166.5 nM, 24 h in serum
[34] = inhibitor 166.5 nM, 10 d in serum
[35] = inhibitor 166.5 nM, positive ctrl
[36] = inhibitor 1665 nM, 0 min in serum
[37] = inhibitor 1665 nM, 30 min in serum
[38] = inhibitor 1665 nM, 60 min in serum
[39] = inhibitor 1665 nM, 120 min in serum
[40] = inhibitor 1665 nM, 24 h in serum
[41] = inhibitor 1665 nM, 10 d in serum
[42] = inhibitor 1665 nM, positive ctrl

Chain of TMPRSS2 (O15393 whole entry): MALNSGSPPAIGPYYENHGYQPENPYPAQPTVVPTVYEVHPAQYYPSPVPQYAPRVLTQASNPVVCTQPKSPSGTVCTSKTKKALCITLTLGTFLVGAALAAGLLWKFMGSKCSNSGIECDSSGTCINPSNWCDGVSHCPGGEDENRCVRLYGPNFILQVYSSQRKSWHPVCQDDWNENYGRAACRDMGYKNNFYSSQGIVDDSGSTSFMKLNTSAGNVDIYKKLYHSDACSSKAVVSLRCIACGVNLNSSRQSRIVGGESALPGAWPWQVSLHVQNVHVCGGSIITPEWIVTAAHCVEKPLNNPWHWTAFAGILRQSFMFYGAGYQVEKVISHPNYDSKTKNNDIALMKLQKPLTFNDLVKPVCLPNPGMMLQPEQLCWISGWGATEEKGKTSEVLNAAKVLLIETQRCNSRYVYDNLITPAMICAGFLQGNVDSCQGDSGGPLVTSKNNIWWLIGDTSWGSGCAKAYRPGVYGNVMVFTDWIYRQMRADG

Molecule: CN(C)C(=O)COC(=O)Cc1ccc(OC(=O)c2ccc(NC(=N)N)cc2)cc1 [CM, camostat mesylate, reference compound]
- Cell viability, Mean (0 nM = 100) (Caco-2 cells; compound 0.26 nM): 104.56
- Cell viability, Mean (0 nM = 100) (Caco-2 cells; compound 1.28 nM): 104.124
- Cell viability, Mean (0 nM = 100) (Caco-2 cells; compound 6.4 nM): 104.38
- Cell viability, Mean (0 nM = 100) (Caco-2 cells; compound 32 nM): 101.009
- Cell viability, Mean (0 nM = 100) (Caco-2 cells; compound 160 nM): 106.562
- Cell viability, Mean (0 nM = 100) (Caco-2 cells; compound 800 nM): 101.849
- Cell viability, Mean (0 nM = 100) (Caco-2 cells; compound 4000 nM): 104.127
- Cell viability, Mean (0 nM = 100) (Caco-2 cells; compound 20000 nM): 103.706
- Cell viability, Mean (0 nM = 100) (Caco-2 cells; compound 100000 nM): 93.2448
- residual inhibitory activity against TMPRSS2 after incubation in body fluids (TMPRSS2; human serum / plasma, up to 10 days): inactive
- reduction of activity against TMPRSS2 upon addition to serum (TMPRSS2; immediately after addition to human serum): around 60 fold
- TMPRSS2 activity, Mean (0 nM = 100) (TMPRSS2; [1]): 97.0909
- TMPRSS2 activity, Mean (0 nM = 100) (TMPRSS2; [2]): 98.7509
- TMPRSS2 activity, Mean (0 nM = 100) (TMPRSS2; [3]): 96.1122
- TMPRSS2 activity, Mean (0 nM = 100) (TMPRSS2; [4]): 96.1122
- TMPRSS2 activity, Mean (0 nM = 100) (TMPRSS2; [5]): 109.9729
- TMPRSS2 activity, Mean (0 nM = 100) (TMPRSS2; [6]): 104.3134
- TMPRSS2 activity, Mean (0 nM = 100) (TMPRSS2; [7]): 91.4692
- TMPRSS2 activity, Mean (0 nM = 100) (TMPRSS2; [8]): 95.7227
- TMPRSS2 activity, Mean (0 nM = 100) (TMPRSS2; [9]): 96.8742
- TMPRSS2 activity, Mean (0 nM = 100) (TMPRSS2; [10]): 95.2722
- TMPRSS2 activity, Mean (0 nM = 100) (TMPRSS2; [11]): 95.2722
- TMPRSS2 activity, Mean (0 nM = 100) (TMPRSS2; [12]): 109.0078
- TMPRSS2 activity, Mean (0 nM = 100) (TMPRSS2; [13]): 107.9350
- TMPRSS2 activity, Mean (0 nM = 100) (TMPRSS2; [14]): 67.2760
- TMPRSS2 activity, Mean (0 nM = 100) (TMPRSS2; [15]): 91.6733
- TMPRSS2 activity, Mean (0 nM = 100) (TMPRSS2; [16]): 104.2530
- TMPRSS2 activity, Mean (0 nM = 100) (TMPRSS2; [17]): 90.9967
- TMPRSS2 activity, Mean (0 nM = 100) (TMPRSS2; [18]): 90.9967
- TMPRSS2 activity, Mean (0 nM = 100) (TMPRSS2; [19]): 110.5140
- TMPRSS2 activity, Mean (0 nM = 100) (TMPRSS2; [20]): 105.0630
- TMPRSS2 activity, Mean (0 nM = 100) (TMPRSS2; [21]): 16.5425
- TMPRSS2 activity, Mean (0 nM = 100) (TMPRSS2; [22]): 58.3113
- TMPRSS2 activity, Mean (0 nM = 100) (TMPRSS2; [23]): 66.2869
- TMPRSS2 activity, Mean (0 nM = 100) (TMPRSS2; [24]): 73.7709
- TMPRSS2 activity, Mean (0 nM = 100) (TMPRSS2; [25]): 73.7709
- TMPRSS2 activity, Mean (0 nM = 100) (TMPRSS2; [26]): 114.2941
- TMPRSS2 activity, Mean (0 nM = 100) (TMPRSS2; [27]): 105.5411
- TMPRSS2 activity, Mean (0 nM = 100) (TMPRSS2; [28]): 3.2273
- TMPRSS2 activity, Mean (0 nM = 100) (TMPRSS2; [29]): 7.4453
- TMPRSS2 activity, Mean (0 nM = 100) (TMPRSS2; [30]): 7.7321
- TMPRSS2 activity, Mean (0 nM = 100) (TMPRSS2; [31]): 7.7056
- TMPRSS2 activity, Mean (0 nM = 100) (TMPRSS2; [32]): 7.7056
- TMPRSS2 activity, Mean (0 nM = 100) (TMPRSS2; [33]): 43.5256
- TMPRSS2 activity, Mean (0 nM = 100) (TMPRSS2; [34]): 104.8964
- TMPRSS2 activity, Mean (0 nM = 100) (TMPRSS2; [35]): 1.7660
- TMPRSS2 activity, Mean (0 nM = 100) (TMPRSS2; [36]): 2.9461
- TMPRSS2 activity, Mean (0 nM = 100) (TMPRSS2; [37]): 4.0032
- TMPRSS2 activity, Mean (0 nM = 100) (TMPRSS2; [38]): 3.9955
- TMPRSS2 activity, Mean (0 nM = 100) (TMPRSS2; [39]): 3.9955
- TMPRSS2 activity, Mean (0 nM = 100) (TMPRSS2; [40]): 8.1597
- TMPRSS2 activity, Mean (0 nM = 100) (TMPRSS2; [41]): 96.3530
- TMPRSS2 activity, Mean (0 nM = 100) (TMPRSS2; [42]): 2.6461

Molecule: ace-Arg-Pro-Arg-kbt [Compound 2]
- increase in Ki values against TMPRSS2 (TMPRSS2; incubation in human serum during the course of 10 days): 1.4–1.8 fold
- TMPRSS2 activity, Mean (0 nM = 100) (TMPRSS2; [1]): 106.1220
- TMPRSS2 activity, Mean (0 nM = 100) (TMPRSS2; [2]): 99.5878
- TMPRSS2 activity, Mean (0 nM = 100) (TMPRSS2; [3]): 97.9753
- TMPRSS2 activity, Mean (0 nM = 100) (TMPRSS2; [4]): 103.1067
- TMPRSS2 activity, Mean (0 nM = 100) (TMPRSS2; [5]): 102.6336
- TMPRSS2 activity, Mean (0 nM = 100) (TMPRSS2; [6]): 99.7199
- TMPRSS2 activity, Mean (0 nM = 100) (TMPRSS2; [7]): 99.3394
- TMPRSS2 activity, Mean (0 nM = 100) (TMPRSS2; [8]): 105.3800
- TMPRSS2 activity, Mean (0 nM = 100) (TMPRSS2; [9]): 98.0548
- TMPRSS2 activity, Mean (0 nM = 100) (TMPRSS2; [10]): 98.4409
- TMPRSS2 activity, Mean (0 nM = 100) (TMPRSS2; [11]): 101.9976
- TMPRSS2 activity, Mean (0 nM = 100) (TMPRSS2; [12]): 99.8791
- TMPRSS2 activity, Mean (0 nM = 100) (TMPRSS2; [13]): 99.7654
- TMPRSS2 activity, Mean (0 nM = 100) (TMPRSS2; [14]): 97.2281
- TMPRSS2 activity, Mean (0 nM = 100) (TMPRSS2; [15]): 108.2341
- TMPRSS2 activity, Mean (0 nM = 100) (TMPRSS2; [16]): 98.1707
- TMPRSS2 activity, Mean (0 nM = 100) (TMPRSS2; [17]): 94.8463
- TMPRSS2 activity, Mean (0 nM = 100) (TMPRSS2; [18]): 98.7901
- TMPRSS2 activity, Mean (0 nM = 100) (TMPRSS2; [19]): 99.7583
- TMPRSS2 activity, Mean (0 nM = 100) (TMPRSS2; [20]): 103.5823
- TMPRSS2 activity, Mean (0 nM = 100) (TMPRSS2; [21]): 91.5051
- TMPRSS2 activity, Mean (0 nM = 100) (TMPRSS2; [22]): 98.1805
- TMPRSS2 activity, Mean (0 nM = 100) (TMPRSS2; [23]): 91.6522
- TMPRSS2 activity, Mean (0 nM = 100) (TMPRSS2; [24]): 87.0886
- TMPRSS2 activity, Mean (0 nM = 100) (TMPRSS2; [25]): 89.1234
- TMPRSS2 activity, Mean (0 nM = 100) (TMPRSS2; [26]): 89.0776
- TMPRSS2 activity, Mean (0 nM = 100) (TMPRSS2; [27]): 93.1155
- TMPRSS2 activity, Mean (0 nM = 100) (TMPRSS2; [28]): 59.7913
- TMPRSS2 activity, Mean (0 nM = 100) (TMPRSS2; [29]): 41.7125
- TMPRSS2 activity, Mean (0 nM = 100) (TMPRSS2; [30]): 36.7343
- TMPRSS2 activity, Mean (0 nM = 100) (TMPRSS2; [31]): 32.5087
- TMPRSS2 activity, Mean (0 nM = 100) (TMPRSS2; [32]): 34.3878
- TMPRSS2 activity, Mean (0 nM = 100) (TMPRSS2; [33]): 36.8130
- TMPRSS2 activity, Mean (0 nM = 100) (TMPRSS2; [34]): 52.5195
- TMPRSS2 activity, Mean (0 nM = 100) (TMPRSS2; [35]): 21.7311
- TMPRSS2 activity, Mean (0 nM = 100) (TMPRSS2; [36]): 8.0842
- TMPRSS2 activity, Mean (0 nM = 100) (TMPRSS2; [37]): 8.9275
- TMPRSS2 activity, Mean (0 nM = 100) (TMPRSS2; [38]): 5.1862
- TMPRSS2 activity, Mean (0 nM = 100) (TMPRSS2; [39]): 6.5663
- TMPRSS2 activity, Mean (0 nM = 100) (TMPRSS2; [40]): 7.0802
- TMPRSS2 activity, Mean (0 nM = 100) (TMPRSS2; [41]): 12.0706
- TMPRSS2 activity, Mean (0 nM = 100) (TMPRSS2; [42]): 5.8217
